These results are taken from patent publication US10752591B2, “18-20 member bi-polycyclic compounds” (Haro Pharmaceutical Inc., priority 2014, dated 2020).

The nature of series [1]: aqueous solubility. Type of series: physicochemical.
In series [2] the test system is C2Cl2 myoblasts. Kind of series: myotube fusion and degeneration in differentiated C2Cl2 cells left in exhausted media. Format: cell-based. Particulars: 200 nM pre-treatment. The procedure:
C2Cl2 myoblasts were seeded at 100,000 in 30 mm plate in growth medium (Phenol red-free RMPI containing 10% FBS, Sodium pyruvate and Ala-Glu), and “pre-treated” with DMSO or 200 nM of compounds 13 or 17. At confluence cells were shifted to differentiation media (high glucose DMEM, +0.2% HS+1× Insulin/Transferrin/Selenium (Life Tech 41400-045)+Glutamine, without Pyruvate). Fully differentiated C2Cl2-derived myotubes were left in culture without media renewal for 8 days followed by media renewal and microscopic examination.

Series [3] concerns C2Cl2 cells. Kind of series: Q-RT PCR of myofiber-degradation associated genes in long term C2Cl2 cultures. Type of series: cell-based. The note with it: day 10, normalized for RPLP0. The procedure:
Quantitative RT-PCR was performed on RNA prepared from cell treated as in Example 9. At day 10 of the experiment, cells were rinsed in HBSS (without calcium or magnesium) and RNA was prepared using FastLane Cell cDNA Kit (Qiagen). Quantitative PCR was performed using Eppendorf and SYBR amplification mix (Sigma-Aldrich) using the gene specific primer combination given in Table 3. Data were normalized for ribosomal housekeeping gene RPLP0

For series [4], the system named is C2Cl2 cells. The series is described as follows: myoblast fusion in long term C2Cl2 cultures (MHC immunocytochemistry). Format: cell-based. The procedure:
The effect of compounds on myoblast fusion was examined in C2Cl2 cells maintained in RPMI media supplemented with 2% horse serum. C2Cl2 myoblastic cells where purchased from the American Type Culture Collection (ATCC) and maintained undifferentiated in RPMI media (Corning) supplemented with 2 mM L-Alanine-L-Glutamine (ATCC) and 1 mM pyruvate (Corning). Undifferentiated cells where maintained below 70% confluence. For long term cultures and compound treatment, cells where plated at high density CellBIND Culture Dishes (corning 3294, 3296, 3337) and in RPMI supplemented with 2% Horse Serum (Gibco) and 2 mM L-Alanine-L-Glutamine (ATCC) and 1 mM pyruvate (Corning). Compounds were dissolved in DMSO at 1000 time the final concentration and diluted 1-in-1000 in the media covering the cells. Media and compounds were changed daily. For immunocytochemistry, cells were fixed in 2% PFA in HBSS for 10 minutes and left in HBSS at 4° under humidified atmosphere and processed for immunocytochemistry. For myosin heavy chain detection (MHC), cells were first incubated in 100 ul-1 ml 0.15 M Glycine in DPBS for 10 minutes, rinse with DPBS. 100 ul-1 ml 0.5% Triton-X in DPBS was added for 10 minutes, rinsed with DPBS, and followed by incubation with 100 ul blocking agent (10% goat serum in DPBS) for 30 min at room temperature. MF20 primary antibody in 10% goat serum in DPBS was added at 1/60 dilution for 30 min at room temperature and rinsed three times with 100 ul DPBS. IgG2b goat anti mouse secondary antibody (Jackson Immuno-Research) was added at 1:1000 in 10% goat serum in DPBS for exactly 30 min at room temperature then rinsed 3 times with 100 ul DPBS. A final rinse in H2O was performed and cells were covered with two drops of Elvanol and cover gently with cover slip and allowed to dry in the dark for 24-48 hours.

Series [5] is described as follows: mouse pharmacokinetics. Type of series: in vivo. Particulars: mice. The procedure:
Mouse pharmacokinetics studies were conducted in female athymic nude or male C57/B6 mice (n=3). Due to its very poor aqueous solubility, compound 17 was formulated in 66% PEG-400/33% H2O-1% Tween-80. In contrast compound 13 was formulated in 66% PEG-400/33% H2O. Compounds were administered PO (30 mg/kg) or IV (5 mg/kg), and plasma concentrations were measured by UV/HPLC.

Series [6] deals with RXR. Kind of series: RXR-mediated transcription, RXRE luciferase reporter in MCF7 cells. Type of series: cell-based. An excerpt:
The effect of various compounds of the invention on RAR-mediated transcription in MCF7 breast cancer cells was examined by measuring their effect on the transcription of a luciferase reporter gene under the control of a TK promoter placed downstream of a RAR response element. In addition, the effect of the compounds on the closely related RXR-mediated transcription was examined by measuring their effect on the transcription of a luciferase reporter gene under the control of a TK promoter placed downstream of a RXR response element.
Typically, 10,000 cells were plated in 96 wells plates in phenol red-free RPMI medium supplemented with 10% charcoal-stripped Fetal Bovine Serum. After 24 hours, cells were transfected with 0.1 μg of luciferase reporter plasmid and 0.01 μg of a reporter plasmid expressing renilla luciferase (RLuc) gene under the control of a SV40 promoter, using Fugene 6 transfection reagent (0.5 μl/well Promega Corporation). Cells were treated in triplicate with compounds or vehicle (DMSO) for 24 hours. Luciferase and renilla luciferase activities were measured using Dual-Glo reagent (Promega Corporation). Luciferase activity was normalized in each well for renilla activity.
On the technique in general: A reporter such as luciferase makes a cellular process visible.

The mark [7] stands for this setting: mouse, plasma, PO (30 mg/kg) or IV (5 mg/kg), route per parameter not stated.

Turning to `CC1(C)CCC(C)(C)c2cc(-c3ccc4cc(C(=O)NO)ccc4c3)ccc21` [Compound 17], the aqueous solubility entry in series [1] is reported as “very poor”. In addition, in series [2], the “cellular fusion after 72 hours differentiation versus DMSO” value is “extensive cellular fusion” and the “myotube structural atrophy in exhausted media for over 8 days” value is listed as “very little structural alteration”. In addition, in series [3], the “expression of Atrogin” value is reported as “downregulates” and the expression of myogenin entry is “downregulates”. Further, in series [4] (300 nM), the “myotubes' length and diameter versus DMSO” value was “longer and larger”. Further, in series [4] (300 nM, 10 days), the “average nuclei per cell of polynucleated myotubes” value is recorded as 5-10 nuclei per cell. For the same compound, in series [4] (long-term culture, suboptimal RPMI media with 2% horse serum), the “fusion of single cells into multinucleated C2Cl2 myotubes” value was “enhances the fusion”. Further, the F in series [5] (PO (30 mg/kg) and IV (5 mg/kg)) amounted to 19.7%. Moreover, in series [5] (setting [7]), the area under the curve AUC(0-inf) (usually the area under the concentration-time curve extrapolated to infinity) came out at 28.7 µM·h and the concentration peaked (Cmax) at 2080 nM. In addition, the clearance in series [5] (mouse, plasma, PO (30 mg/kg) or IV (5 mg/kg), route per parameter not stated, read-out: CLp) turned out to be 10.2 mL/min/kg. Further, the MRT (as a rule, a mean duration of stay, worked out from the concentration-time curve) in series [5] (mouse, plasma, PO (30 mg/kg) or IV (5 mg/kg), route per parameter not stated, read-out: MRT) was 7.1 h. Further, in series [5] (mouse, plasma, PO (30 mg/kg) or IV (5 mg/kg), route per parameter not stated, read-out: Tmax), the Tmax (as a rule, the time at which the peak concentration occurs) turned out to be 4.3 h. For the same compound, the Vd in series [5] (mouse, plasma, PO (30 mg/kg) or IV (5 mg/kg), route per parameter not stated, read-out: Vd,ss) is 4.6 L/kg. The “transcriptional activation of RXR / RXRE-promoter” value in series [6] is “none”.
